According to patent US20230406864A1, “7-AZOLE SUBSTITUTED 2-AMINOQUINAZOLINE INHIBITORS OF HPK1” (MERCK SHARP & DOHME LLC, priority 2020, published 2023):

What follows are compounds tested against T1, Human HPK1, catalytic domain (Homo sapiens, UniProt Q92918) (assay: HPK1-SLP76 TR-FRET assay). Conditions: HPK1 kinase domain 0.075 nM; full length SLP-76 10 nM; ATP 10 μM; 30 min preincubation; 60 min reaction; room temperature.
T1 construct: purchased Cama (so in the source)
T1 sequence (Q92918 1-346): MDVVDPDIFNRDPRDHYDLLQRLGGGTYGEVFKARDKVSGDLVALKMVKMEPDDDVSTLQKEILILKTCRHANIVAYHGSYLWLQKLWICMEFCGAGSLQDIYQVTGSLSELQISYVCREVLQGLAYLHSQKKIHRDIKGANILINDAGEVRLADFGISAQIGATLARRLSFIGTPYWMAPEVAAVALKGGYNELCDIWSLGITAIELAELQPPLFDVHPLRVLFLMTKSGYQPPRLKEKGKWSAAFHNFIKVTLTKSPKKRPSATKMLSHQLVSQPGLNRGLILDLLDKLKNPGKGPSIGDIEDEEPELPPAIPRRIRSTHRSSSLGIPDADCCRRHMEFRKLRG
Format: biochemical

SMILES	IC50 [nM]
CNC(=O)Cn1cc(Nc2ncc3c(N)c(F)c(-c4cnc5c(c4C)NCCO5)cc3n2)c(C)n1 [Example 2-40, 2-(4-{[5-amino-6-fluoro-7-(8-methyl-2,3-dihydro-1H-pyrido[2,3-b][1,4]oxazin-7-yl)quinazolin-2-yl]amino}-3-methyl-1H-pyrazol-1-yl)-N-methylacetamide]	0.27
Cc1nn(C)cc1Nc1ncc2c(N)c(F)c(-c3cnc4c(c3C)NCCO4)cc2n1 [Example 2-34, N~2~-(1,3-dimethyl-1H-pyrazol-4-yl)-6-fluoro-7-(8-methyl-2,3-dihydro-1H-pyrido[2,3-b][1,4]oxazin-7-yl)quinazoline-2,5-diamine]	0.058
Cc1c(-c2cc3nc(Nc4cnn([C@H]5CCN(C)C5)c4)ncc3c(N)c2F)cnc2c1NCCO2 [Example 2-47, (S)-6-fluoro-7-(8-methyl-2,3-dihydro-1H-pyrido[2,3-b][1,4]oxazin-7-yl)-N2-(1-(1-methylpyrrolidin-3-yl)-1H-pyrazol-4-yl)quinazoline-2,5-diamine]	0.177
Cc1c(-c2cc3nc(Nc4cnn(CC5CC5)c4)ncc3c(N)c2F)cnc2c1NCCO2 [Example 2-6, N~2~-[1-(cyclopropylmethyl)-1H-pyrazol-4-yl]-6-fluoro-7-(8-methyl-2,3-dihydro-1H-pyrido[2,3-b][1,4]oxazin-7-yl)quinazoline-2,5-diamine]	0.14
Cc1c(-c2cc3nc(Nc4cnn(CC(C)C)c4)ncc3c(N)c2F)cnc2c1NCCO2 [Example 2-13, 6-fluoro-7-(8-methyl-2,3-dihydro-1H-pyrido[2,3-b][1,4]oxazin-7-yl)-N~2~-[1-(2-methylpropyl)-1H-pyrazol-4-yl]quinazoline-2,5-diamine]	0.77
Cc1c(-c2cc3nc(Nc4cnn(CC(C)(C)O)c4)ncc3c(N)c2F)cnc2c1NCCO2 [Example 2-24, 1-(4-{[5-amino-6-fluoro-7-(8-methyl-2,3-dihydro-1H-pyrido[2,3-b][1,4]oxazin-7-yl)quinazolin-2-yl]amino}-1H-pyrazol-1-yl)-2-methylpropan-2-ol]	1.1
